The subject of this assay is CEM cells HIV-1 protection, formazan growth assay. Nature of the assay: NCI AIDS Antiviral Assay. The note with it: for IC50: measured here: growth of uninfected CEM cells. An outline of the steps:
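Human CEM cells, uninfected and HIV-1-infected, exposed to five drug concentrations; growth measured by soluble formazan assay and scored as percent protection from infection, with protecting compounds retested.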

By EC50 is commonly meant the midpoint of the concentration-response curve. One may read the IC50 as the concentration that gives 50% inhibition.

The source made the active and inactive calls.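 How the source made its calls: active means compounds giving half or more protection of infected cells from virus-caused growth loss, again on retest; inactive means the rest.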 Where a SMILES comes first, the peptide text is derived from it. Bridges are numbered along the chain shown (N, C = ends). Roman numbers before positions name the chains, in order. The star is where a group is joined. Cbz = O=C(OCc1ccccc1)* A value given as a limit tells only on which side of the number the result lay.

In the case of `CC(C)C1=CC23CCC4C(C)(C(=O)O)CCCC4(C)C2CC1C1C(=O)N(c2cccc(N4C(=O)C5C6CC7C8(C)CCCC(C)(C(=O)O)C8CCC7(C=C6C(C)C)C5C4=O)c2)C(=O)C13` (stereo not drawn), the EC50 is greater than 269 µM and the IC50 stood at 13.2 µM.

In the case of `CC12CC(=O)NC(=O)N1CCS2` (stereo not drawn), the EC50 is 214 µM and the half-inhibitory concentration (IC50) is 562 µM. On to `CC(NCCCCCCNC(C)C(=O)O)C(=O)O` (stereo not drawn), for which the EC50 is greater than 589 µM and the IC50 was greater than 589 µM. Turning to `Cc1ccccc1OP(=S)(Oc1ccccc1C)Oc1ccccc1C`, the EC50 was greater than 200 µM and the IC50 was found to be 35.5 µM. On the same counts, the results for `CN(C)c1ccc(/C=C2/SC(=S)NC2=O)cc1` are greater than 38 µM and greater than 38 µM. For `COc1ccc(Cc2cc(Cc3ccc(OC)cc3)cc(Cc3ccc(OC)cc3)c2)cc1` the same measures were greater than 100 µM and greater than 100 µM. With `CCOC(=O)C1SC(=Nc2ccc(Cl)cc2)N=C1C` (stereo not drawn), the EC50 is greater than 87.1 µM and the IC50 was greater than 87.1 µM. As to `CC(=O)OCc1cc(OC(C)=O)cnc1COC(C)=O`, the EC50 is greater than 468 µM and the IC50 is greater than 468 µM.

For the molecule `O=C1c2cccc3cc([N+](=O)[O-])cc(c23)C(=O)N1c1ccc(OCCN2CCCC2)cc1`, the EC50 was greater than 200 µM and the IC50 amounted to 5.62 µM. On the same counts, the results for `CC1(C(=O)O)CCC2(C)CCC3(C)C(=CC(=O)C4C5(C)CCC(OC6OC(C(=O)O)C(O)C(O)C6OC6OC(C(=O)O)C(O)C(O)C6O)C(C)(C)C5CCC43C)C2C1` (stereo not drawn) are greater than 302 µM and greater than 302 µM. On the same counts, the results for `CN(C)CCCC12CCCCC1=Nc1ccccc12` (stereo not drawn) are greater than 200 µM and 7.76 µM. For `C=Cc1cncc(C#N)c1CCc1c(C#N)cncc1C=C` the same measures were greater than 34.7 µM and greater than 34.7 µM. As to `O=C1CN(C=C2C(=O)NC(=O)NC2=O)C(=S)N1`, the EC50 is greater than 200 µM and the IC50 was greater than 200 µM. On to `O=C(CCc1cc(-c2ccccc2)nc(=S)[nH]1)Nc1ccccc1[N+](=O)[O-]`, for which the EC50 was greater than 661 µM and the IC50 is greater than 661 µM. Take `Cc1ccc([P+](Cc2ccccc2)(c2ccc(C)cc2)c2ccc(C)cc2)cc1`: the EC50 is greater than 200 µM and the IC50 amounted to 0.851 µM.

Consider `COc1ccc(C2S/C(=C\c3ccccc3O)C(=O)N2NC(=O)Cc2ccccc2)cc1` (stereo not drawn), for which the EC50 is greater than 57.5 µM and the IC50 was greater than 57.5 µM. In the case of `C/C=C/CP(=O)(c1ccccc1)c1ccccc1`, the EC50 is 0.0631 µM and the IC50 was greater than 200 µM.

For `Cc1ccc2c(c1)-c1nc(N)c(C#N)c(-c3ccc(Cl)cc3)c1CCS2(=O)=O`, the EC50 is greater than 200 µM and the IC50 was 29.5 µM. On the same counts, the results for `CC(=O)OC1=C(C)S(=O)(=O)c2ccccc21` are greater than 200 µM and greater than 200 µM.

With `Nc1ccc(S(=O)(=O)N/N=C/c2ccc3c(c2)OCO3)cc1`, the EC50 was greater than 81.3 µM and the IC50 is greater than 81.3 µM. For the molecule `CCc1n[nH]c(=O)n1N1C(=O)C2CCCCC2C1=O` (stereo not drawn), the EC50 was greater than 200 µM and the IC50 was greater than 200 µM. On to `CCOP(=O)(CC(=O)C1CC1)OCC`, for which the result was inactive. Take `COc1ccc2c(=O)c(C)c(/C=C/c3ccco3)oc2c1`: the EC50 is greater than 158 µM and the IC50 came out at 27.5 µM.

Take `O=C(Cn1cc(F)c(=O)[nH]c1=O)C12CC3CC(CC(C3)C1)C2`: the EC50 was greater than 200 µM and the concentration for half-maximal inhibition (IC50) came out at 186 µM. For `NC(=S)N/N=C/c1cccc(CC(O)(C(F)(F)F)C(F)(F)F)n1` the same measures were greater than 200 µM and 5.89 µM. For `CCOC(=O)C(=O)Nc1ccc(C)cc1C` the same measures were greater than 1120 µM and 646 µM. For `C=C1CC(COc2ccc3c(C)cc(=O)oc3c2)(c2ccccc2)OC1=O` (stereo not drawn) the same measures were greater than 200 µM and 0.603 µM. As for `C=C1C(C(=O)OC)[C@H]1C(=O)OC` (stereo partly drawn), the EC50 was 5.5 µM and the IC50 was greater than 200 µM.

Turning to `O=C(O)c1ccc(-c2ccc(C(=C(F)F)C(F)(F)F)cc2)cc1`, the result was inactive. On to `CC(=O)Nc1ccc(C(O)/C(=N/N)c2nc3ccc(Cl)cc3[nH]c2=O)cc1` (stereo not drawn), for which the EC50 was greater than 162 µM and the IC50 was greater than 162 µM. Take `S=C(N/N=C/c1ccccc1)Nc1ccc(Oc2ccc(NC(=S)N/N=C/c3ccccc3)cc2)cc1`: the EC50 was 8.91 µM and the 50% inhibitory concentration (IC50) was 11.7 µM. For `CCCCCCCCCCCCCCCC(=O)OCC1OC(OC)C2NP(=O)(N(CCCl)CCCl)OC1C2O` (stereo not drawn) the same measures were greater than 8.51 µM and 0.155 µM.

For the molecule `N#C/C(=C\c1ccc(O)c(O)c1)C(=O)NC1CCC(CC2CCC(NC(=O)/C(C#N)=C/c3ccc(O)c(O)c3)CC2)CC1` (stereo not drawn), the EC50 is greater than 200 µM and the IC50 was found to be 1.07 µM. On the same counts, the results for `CN(C)/N=C(/c1nc2ccc([N+](=O)[O-])cc2[nH]c1=O)C(O)c1ccco1` (stereo not drawn) are greater than 263 µM and 191 µM. For the molecule `C[CH2][Sn]([CH2]C)([O]C(=O)c1ccc(F)cc1)[O]C(=O)c1ccc(F)cc1`, the EC50 is greater than 110 µM and the IC50 is 3.63 µM. For `Cc1cccc2c1c1ccc3c(c1n2C)C(=O)C=CC3=O` the same measures were greater than 18.2 µM and 9.77 µM. On the same counts, the results for `CCN(CC)/[N+]([O-])=N/OCC(C)O` (stereo not drawn) are greater than 8130 µM and greater than 8130 µM. In the case of `CCCCC(C(=O)CCC(=O)Nc1ccc(Cl)cc1)C(=O)C(C)C` (stereo not drawn), the EC50 was greater than 186 µM and the IC50 is greater than 186 µM.

Consider `N#CC(C(=O)/C(=N\NC(N)=O)C(C#N)c1ccc(Cl)cc1)c1ccc(Cl)cc1` (stereo not drawn), for which the EC50 was greater than 603 µM and the IC50 came to 398 µM. For `CC(C)=CCC[C@@H](C)C1=C(O)C(N)=C(C)C(=O)C1=O` the same measures were greater than 200 µM and 12 µM. For `Cc1cc(NS(=O)(=O)c2ccc(Nc3c4ccccc4nc4ccccc34)cc2)no1` the same measures were greater than 200 µM and 2 µM.

For the molecule `C=C1C(=O)O[C@H]2C/C(C=O)=C\[C@H]3O[C@H]3/C(COC(=O)C(C)C)=C/CC12` (stereo partly drawn), the EC50 was greater than 200 µM and the half-maximal inhibitory concentration (IC50) came out at 1.62 µM. For `O=c1c(-c2ccc(O)c(O)c2)coc2cc(O)cc(O)c12` the same measures were greater than 200 µM and 15.8 µM.

Consider `CCc1ccccc1NC(=O)C1=C(C)NC(C)=C(C(=O)Nc2ccccc2CC)C1c1ccc2c(c1)OCO2`, for which the EC50 was greater than 13.8 µM and the IC50 was greater than 13.8 µM.

Regarding `C#CCN(N=O)C(=O)ON1C(=O)CCC1=O`, the EC50 is greater than 1120 µM and the IC50 was 537 µM.

For `CN(C)C(=S)N/N=C\C(=N/NC(=S)N(C)C)c1ccccc1`, the EC50 was greater than 200 µM and the IC50 came to 12.9 µM. For `SCCSCCCSCCS` the same measures were greater than 22.9 µM and greater than 22.9 µM.

As for `C=C1C(=O)O[C@H]2C1[C@H](OC(=O)/C(C)=C\COC(C)=O)C[C@]1(CO1)[C@@H]1[C@H](O)[C@H]3O[C@@]3(C)[C@@H]12` (stereo partly drawn), the result was inactive. The same measure, in the same setting: for `Cc1noc2cccc(O)c12` the value was “inactive”. The same measure, in the same setting: for `O=[N+]([O-])c1cc(S(=O)(=O)c2ccc(S)c([N+](=O)[O-])c2)ccc1S` the value was “inactive”.

Turning to `COC1=C(C(=O)OC(C)(C)C)C2C(C(=O)OC(C)(C)C)C(OC)=C(C(=O)OC(C)(C)C)C2C1C(=O)OC(C)(C)C` (stereo not drawn), the EC50 is greater than 31.6 µM and the IC50 came to 17 µM. As for `COc1ccc(OC(C)=O)c2c1CCC=CC2=O`, the result was inactive. `CCOC(=O)c1cn(CC)c2cc3c(cc2c1=O)SCS3`: the outcome was inactive. On to `Cc1nc2ccccc2c(=O)n1NC(=O)c1ccccc1[N+](=O)[O-]`, for which the EC50 was greater than 200 µM and the IC50 is greater than 200 µM.

On to `Cc1nc2nnnn2c2c1C(=O)Nc1ccccc1N2`, for which the EC50 was greater than 200 µM and the IC50 worked out at 83.2 µM. Regarding `CCCCNC(=S)Nc1nc(C(=O)NNC(=S)NCC)cs1`, the EC50 is greater than 200 µM and the IC50 is greater than 200 µM. On to `Clc1ccc(OCc2nnc(CCCCCCCCc3nnc(COc4ccc(Cl)cc4)n3Nc3ccccc3)n2Nc2ccccc2)cc1`, for which the result was inactive. Take `CCOC(=O)C(Cc1ccc(O)cc1)NC(=O)C(CSSCC(NC(=O)OCc1ccccc1)C(=O)NC(Cc1ccc(O)cc1)C(=O)OCC)NC(=O)OCc1ccccc1` (stereo not drawn) (I: Cbz-Cys-Tyr-OEt / II: Cbz-Cys-Tyr-OEt; disulfide I:1-II:1; configuration not given here): the EC50 is greater than 100 µM and the IC50 amounted to 15.5 µM. On the same counts, the results for `NNC1=N/C(=C\c2ccco2)C(Cl)=N1` are greater than 200 µM and 38 µM. Take `O=C(O)c1ccc(CS(=O)(=O)c2ccc([N+](=O)[O-])cc2)cc1`: the EC50 is greater than 22.4 µM and the concentration for half-maximal inhibition (IC50) is greater than 22.4 µM. With `COc1ccc2nc3cccc([N+](=O)[O-])c3c(NCCNCCO)c2c1`, the EC50 was greater than 0.2 µM and the IC50 stood at 0.112 µM.

Turning to `CC(C)(C)c1cc2c(c(C(C)(C)C)c1)OC(C1Nc3cc(C(C)(C)C)cc(C(C)(C)C)c3O1)N2` (stereo not drawn), the EC50 was greater than 100 µM and the IC50 was 21.4 µM. As for `C=CC(C)(C)C(=C)C(=O)N(C)c1ccccc1I`, the EC50 was greater than 200 µM and the IC50 stood at 89.1 µM. For `Cc1ccc(/C=N/Nc2nc3ccccc3s2)s1` the same measures were greater than 200 µM and 67.6 µM.

Turning to `C=C(C(=O)O)C1CCC(CC/C=C(\C)CC/C=C(\C)CCC=C(C)C)CO1` (stereo not drawn), the EC50 was greater than 200 µM and the IC50 was 6.17 µM. On to `O=S(=O)(c1ccccc1)C(Br)c1ccccc1` (stereo not drawn), for which the EC50 was greater than 158 µM and the IC50 is greater than 158 µM.

As to `N#Cc1ccc(C=C2C(=O)NC(=O)NC2=O)cc1`, the EC50 is greater than 209 µM and the IC50 was 107 µM. For `CC(=O)Nc1ccc(C(=O)N2N=C(C)/C(=C/c3cccc(O)c3)C2=O)cc1` the same measures were greater than 138 µM and greater than 138 µM. `Cc1cc(-n2nnc(C(=O)O)c2-c2ccccc2)c2ccc(Cl)cc2n1`: the EC50 is greater than 200 µM and the IC50 was greater than 200 µM. With `COC(=O)C12C3C4C5C3(C#N)C1C5(C(=O)OC)C42C(=O)N(C(C)C)C(C)C` (stereo not drawn), the EC50 was greater than 97.7 µM and the IC50 is greater than 97.7 µM. Consider `N.N.N.O=N[O-].O=N[O-].O=N[O-].[Co+3]`, for which the result was inactive.

The values are drawn from PubChem BioAssay AID179 (DTP/NCI, 2004).
